Measured values reported in US20240000749A1, “SOLID FORMULATION” (Janssen Pharmaceuticals, Inc., priority 2020, published 2024).
Converted amounts (≈) assume the structure as drawn. Where two headings read alike, the source gives them in different places.

Tests used:
Type in all cases: physicochemical
[1] = Stability of API, SD2 powder and 10 mg SD2 tablets in HDPE bottles; parameters: key to Appearance: “T1”: white powder; “T2”: white or off white round tablet; conditions: Table 8
Description: Stability of the API, SD2 as well as the tablet (10 mg strength) comprising SD2 was tested by placing the tablets in HDPE bottles under stressed conditions as described in column 2 of Table 7.

[2] = Approximate solubility screening in organic solvents at ambient temperature; conditions: organic solvent or mixture, thermodynamic from solid, read-out: S (solubility)
Description: To screen appropriate solvent for spray drying, approximate solubility of starting material was estimated in different organic solvents at ambient temperature.

[3] = In vitro 2-phase (SGF/FaSSIF) miniaturized dissolution of solid dispersion films; conditions: SGF-FaSSIF, 37° C.
Description: In vitro, 2-phase (SGF/FaSSIF) miniaturized dissolution was performed, where the amount of dissolved API was monitored as a function of time. Before starting the dissolution assay, the films were stored at room temperature, for one day for the first screen and for 3 days for the second screen. By doing so, most of the residual solvent was evaporated. Actual dissolution experiments were performed in 96 1 mL glass vials using the Hamilton STAR plus liquid handling platform for both sampling and sample preparation. Before addition to the films, the media was preheated to 37° C. 300 μL of preheated SGF (37° C., pH 1.3) was then added to the solid dispersions. After 15 minutes of incubation in SGF, 600 μL of preheated concentrated FaSSIF (37° C., pH 10.5) was added to the samples. The addition of this concentrated FaSSIF to SGF results in a medium with a similar composition to the typical FaSSIF medium used in 1-phase dissolution studies. At predetermined time intervals (11, 24, 34, 49, 79, 139 minutes), aliquots were withdrawn from the dissolution media and filtered through a 0.45 μm GHP membrane filter. Subsequently, the filtered solutions were quantitatively diluted with N-methyl pyrrolidone (NMP) to prevent possible precipitation. The amount of dissolved API was determined by UPLC/UV-Vis analysis. Experiments were performed in duplicate for each formulation per screen. […]

[4] = Equilibrium solubility determined by UPLC
[5] = Stability of API, SD1 powder and 10 mg SD1 tablets in HDPE bottles; parameters: key to Appearance: “T1”: white powder; “T2”: white or off white round tablet; conditions: Table 6
Description: Stability of the API, SD1 powder as well as the tablets (10 mg strength) comprising SD1 was tested by placing the tablets in High-density polyethylene (HDPE) bottles under stressed conditions as described in column 2 of Table 6.

Appearance ([1]; 40° C./75% RH (closed), 1 M): T1
Purity (%) ([1]; 40° C./75% RH (closed), 1 M): 98.96%
Total impurity (%) ([1]; 40° C./75% RH (closed), 1 M): 1.04%
Appearance ([1]; 40° C./75% RH (closed), 2 M): T1
Purity (%) ([1]; 40° C./75% RH (closed), 2 M): 98.94%
Total impurity (%) ([1]; 40° C./75% RH (closed), 2 M): 1.05%
Appearance ([1]; 40° C./75% RH (closed), 2 W): T1
Purity (%) ([1]; 40° C./75% RH (closed), 2 W): 98.95%
Total impurity (%) ([1]; 40° C./75% RH (closed), 2 W): 1.05%
Appearance ([1]; 40° C./75% RH (closed), 3 M): T1
Purity (%) ([1]; 40° C./75% RH (closed), 3 M): 98.95%
Total impurity (%) ([1]; 40° C./75% RH (closed), 3 M): 1.05%
Appearance ([1]; 40° C./75% RH (open), 1 M): T1
Purity (%) ([1]; 40° C./75% RH (open), 1 M): 98.94%
Total impurity (%) ([1]; 40° C./75% RH (open), 1 M): 1.04%
Appearance ([1]; 40° C./75% RH (open), 2 M): T1
Purity (%) ([1]; 40° C./75% RH (open), 2 M): 98.96%
Total impurity (%) ([1]; 40° C./75% RH (open), 2 M): 1.04%
Appearance ([1]; 40° C./75% RH (open), 2 W): T1
Purity (%) ([1]; 40° C./75% RH (open), 2 W): 98.95%
Total impurity (%) ([1]; 40° C./75% RH (open), 2 W): 1.06%
Appearance ([1]; 40° C./75% RH (open), 3 M): T1
Purity (%) ([1]; 40° C./75% RH (open), 3 M): 98.96%
Total impurity (%) ([1]; 40° C./75% RH (open), 3 M): 1.05%
solubility ([2]; Acetone/EtOH (1/1, v/v)): > 100 mg/mL
solubility ([2]; Acetone/EtOH (2/1, v/v)): > 100 mg/mL
solubility ([2]; Acetone/H2O (9/1, v/v)): > 100 mg/mL
solubility ([2]; Acetone/MeOH (2/1, v/v)): > 100 mg/mL
solubility ([2]; EtOH/H2O (9/1, v/v), HPMC E5 added into co-solvent system directly): 10 to 12.5 mg/mL (≈ 17.2 to 21.4 mM)
solubility ([2]; MeOH): 42 mg/mL (≈ 72 mM)
solubility ([2]; MeOH/DCM (1/1, v/v)): > 100 mg/mL
final release of the total amount of API present in the films ([3]; first screen): approximately 9%
final release of the total amount of API present in the films ([3]; second screen): approximately 9%
solubility thermodynamic ([4]; MeOH/dichloromethane (1/1, organic solvent or mixture, thermodynamic from solid), MeOH/dichloromethane (DCM) (1/1, v/v)): 317 mg/mL (≈ 544 mM)
solubility thermodynamic ([4]; organic solvent or mixture, thermodynamic from solid, MeOH): 42 mg/mL (≈ 72 mM)
Appearance ([5]; 40° C./75% RH (closed), 1 M): T1
Purity (%) ([5]; 40° C./75% RH (closed), 1 M): 98.96%
Total impurity (%) ([5]; 40° C./75% RH (closed), 1 M): 1.04%
Appearance ([5]; 40° C./75% RH (closed), 2 M): T1
Purity (%) ([5]; 40° C./75% RH (closed), 2 M): 98.94%
Total impurity (%) ([5]; 40° C./75% RH (closed), 2 M): 1.06%
Appearance ([5]; 40° C./75% RH (closed), 2 W): T1
Purity (%) ([5]; 40° C./75% RH (closed), 2 W): 98.95%
Total impurity (%) ([5]; 40° C./75% RH (closed), 2 W): 1.05%
Appearance ([5]; 40° C./75% RH (closed), 3 M): T1
Purity (%) ([5]; 40° C./75% RH (closed), 3 M): 98.95%
Total impurity (%) ([5]; 40° C./75% RH (closed), 3 M): 1.05%
Appearance ([5]; 40° C./75% RH (open), 1 M): T1
Purity (%) ([5]; 40° C./75% RH (open), 1 M): 98.94%
Total impurity (%) ([5]; 40° C./75% RH (open), 1 M): 1.06%
Appearance ([5]; 40° C./75% RH (open), 2 M): T1
Purity (%) ([5]; 40° C./75% RH (open), 2 M): 98.96%
Total impurity (%) ([5]; 40° C./75% RH (open), 2 M): 1.04%
Appearance ([5]; 40° C./75% RH (open), 2 W): T1
Purity (%) ([5]; 40° C./75% RH (open), 2 W): 98.95%
Total impurity (%) ([5]; 40° C./75% RH (open), 2 W): 1.05%
Appearance ([5]; 40° C./75% RH (open), 3 M): T1
Purity (%) ([5]; 40° C./75% RH (open), 3 M): 98.96%
Total impurity (%) ([5]; 40° C./75% RH (open), 3 M): 1.04%
Structure (SMILES): COc1cc(NC(C(=O)c2c[nH]c3ccc(OC(F)(F)F)cc23)c2ccc(Cl)cc2OC)cc(S(C)(=O)=O)c1 (centres unmarked) [API]
